Results taken from publication PMC3369275 (Tetrahedron, 2012).

Assays:
NF-κB (p65) = NF-κB (p65) (Homo sapiens, UniProt Q04206); test: Enzyme-based ELISA NF-κB p65 inhibition assay; type: biochemical; conditions: for IC50: read-out: NF-κB p65 inhibition IC50, ELISA, rocaglamide positive control; for NF-κB (p65) inhibitory activity (result in words): inactive = IC50 > 10 µM
[1] = tested on: panel of human cancer cell lines; conditions: reported previously; cited from earlier work
[2] = tested on: HT-29 human colon cancer cell line

Chain of NF-κB (p65) (Q04206 whole entry): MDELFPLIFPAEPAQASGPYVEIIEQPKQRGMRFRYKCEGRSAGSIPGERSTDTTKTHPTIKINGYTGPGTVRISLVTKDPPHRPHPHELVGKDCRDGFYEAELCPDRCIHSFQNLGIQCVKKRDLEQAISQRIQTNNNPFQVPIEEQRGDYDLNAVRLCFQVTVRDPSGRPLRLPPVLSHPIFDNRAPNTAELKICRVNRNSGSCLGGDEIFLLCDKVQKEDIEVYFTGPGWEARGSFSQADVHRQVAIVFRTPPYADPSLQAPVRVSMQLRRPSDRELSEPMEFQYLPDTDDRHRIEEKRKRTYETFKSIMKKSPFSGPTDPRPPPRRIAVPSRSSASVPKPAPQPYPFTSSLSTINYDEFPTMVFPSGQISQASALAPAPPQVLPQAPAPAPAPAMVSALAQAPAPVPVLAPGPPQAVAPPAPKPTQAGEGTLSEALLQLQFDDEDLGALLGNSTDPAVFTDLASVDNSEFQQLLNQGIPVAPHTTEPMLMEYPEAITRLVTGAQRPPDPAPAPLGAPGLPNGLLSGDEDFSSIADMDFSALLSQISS

Compound | IC50 (NF-κB (p65)) [µM] | NF-κB (p65) inhibitory activity (result in words) (NF-κB (p65)) | Cytotoxicity toward a panel of human cancer cell lines (result in words) [1] | IC50 [2] [µM]
C=C1C(=O)OC2CC(C)CCC(=O)C(C)(OC(C)=O)CC(OC(=O)C(C)=CC)C12 [Compound 3, (4S,6R,7S,8S,10R)-1-oxo-8-angeloyloxy-10-acetoxygermacra-11(13)-en-6,12-olide] | > 10 |  |  | 3
C=C1C(=O)OC2CC(C)C(OC)CC(=O)C(C)(OC(C)=O)CC(OC(=O)C(C)=CC)C12 [Compound 5, (3R,4R,6R,7S,8S,10R)-1-oxo-3-methoxy-8-angeloyloxy-10-acetoxygermacra-11(13)-en-6,12-olide] | 2.1 | active |  | 
C=C1C(=O)O[C@@H]2C/C(C)=C\CC(=O)[C@](C)(OC(C)=O)C[C@H](OC(=O)/C(C)=C\C)[C@@H]12 [Compound 4, (6R,7S,8S,10R)-1-oxo-8-angeloyloxy-10-acetoxygermacra-3(4),11(13)-dien-6,12-olide] | > 10 |  |  | 
C=C1C(=O)O[C@H]2[C@H]1CC/C(C)=C/CC[C@@]1(C)O[C@@H]21 [parthenolide, reference compound] |  |  | exhibit cytotoxicity | 

The next lines start with results.

IC50 (NF-κB (p65)) [µM] | NF-κB (p65) inhibitory activity (result in words) (NF-κB (p65)) | Compound | Cytotoxicity toward a panel of human cancer cell lines (result in words) [1] | IC50 [2] [µM]
> 10 |  | 4,5-dihydrolychnopholide [Compound 13] |  | 
3.8 | active | C=C(C)C(=O)O[C@H]1C[C@@]2(C)OC(=CC2=O)/C(CO)=C\[C@H]2OC(=O)C(=C)[C@H]12 [Compound 8, goyazensolide] | exhibit cytotoxicity | 
2.9 | active | C=C1C(=O)O[C@@H]2/C=C(/C)C3=CC(=O)[C@@](C)(C[C@H](OC(=O)/C(C)=C\C)[C@@H]12)O3 [Compound 12, lychnopholide] | exhibit cytotoxicity | 
3.2 | active | 15-deoxygoyazensolide [Compound 10] |  | 0.26
> 10 |  | C=C1C(=O)OC2CC(C)C(OC)CC(=O)C(C)(O)CC(OC(=O)C(C)=CC)C12 [Compound 6, (3R,4R,6R,7S,8S,10R)-1-oxo-3-methoxy-8-angeloyloxy-10-hydroxygermacra-11(13)-en-6,12-olide] |  | 
> 10 |  | C=C1C(=O)O[C@@H]2C[C@@H](C)/C=C\C(=O)[C@](C)(OC(C)=O)C[C@H](OC(=O)/C(C)=C\C)[C@@H]12 [Compound 7, ereglomerulide] |  | 
